Our source for the IC50 values is patent publication US20170253601A1, “Substituted Pyrrolidine Compounds” (EPIZYME, INC., priority 2014, published 2017).

Broadly, the IC50 is the point on the concentration scale where inhibition reaches its midpoint.

The target in this experiment is T1, human SMYD3 (Homo sapiens, UniProt Q9H7B4).
T1 construct: Expressed full-length human His-tagged SMYD3 protein was purified from cell paste; His6 (cleaved yes); TEV and SUMO cleavage sites (cleaved yes); made in house; host or cells: E. coli BL21 codonplus RIL
T1 sequence (Q9H7B4 1-428): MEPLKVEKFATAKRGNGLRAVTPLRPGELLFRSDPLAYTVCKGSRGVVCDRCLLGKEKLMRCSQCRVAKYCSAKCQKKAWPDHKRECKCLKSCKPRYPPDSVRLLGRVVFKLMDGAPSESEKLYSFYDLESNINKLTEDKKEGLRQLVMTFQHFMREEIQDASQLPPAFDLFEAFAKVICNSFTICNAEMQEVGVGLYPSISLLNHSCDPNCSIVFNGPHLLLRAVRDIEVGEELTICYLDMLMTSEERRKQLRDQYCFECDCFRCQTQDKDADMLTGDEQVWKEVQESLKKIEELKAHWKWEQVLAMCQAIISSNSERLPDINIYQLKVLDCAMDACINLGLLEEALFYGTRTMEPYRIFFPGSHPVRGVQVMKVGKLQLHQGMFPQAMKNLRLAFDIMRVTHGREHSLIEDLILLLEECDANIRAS
The experiment can be described thus: SMYD3 Biochemical Assay (3H-SAM, MEKK2 protein substrate, SPA). Conditions: Table 1; average of n = 1 to n = 50; read-out: SMYD3 Biochem IC50. The text has this: S-adenosylmethionine (SAM), S-adenosylhomocysteine (SAH), Tris, Tween20, dimethylsulfoxide (DMSO), bovine skin gelatin (BSG), and Tris(2-carboxyethyl)phosphine hydrochloride solution (TCEP) were purchased from Sigma-Aldrich at the highest level of purity possible. ^3H-SAM was purchase from American Radiolabeled Chemicals with a specific activity of 80 Ci/mmol. 384-well opaque white OptiPlates and SPA beads (Perkin Elmer, catalog # RPNQ0013) were purchased from PerkinElmer.
N-terminally GST-tagged MEKK2 (MAP3K2) protein corresponding to reference sequence AAF63496.3 was purchased from Life Technologies (catalog # PV4010). This protein was expressed in High Five insect cells and purified to >85% purity. Protein identity was confirmed by MS/MS analysis after proteolytic digestion. The protein sequence used was:
Full-length human SMYD3 isoform 1 (BAB86333) was inserted into a modified pET21b plasmid containing a His6 tag and TEV and SUMO cleavage sites. Because two common variants of SMYD3 exist in the population, site directed mutagenesis was subsequently performed to change amino acid 13 from an asparagine to a lysine, resulting in plasmid pEPZ533. A lysine at position 13 conforms to the more commonly occurring sequence (NP_001161212).
E. coli (BL21 codonplus RIL strain, Stratagene) were transformed with plasmid pEPZ553 by mixing competent cells and plasmid DNA and incubating on ice for 30 minutes followed by heat shock at 42° C. for 1 minute and cooling on ice for 2 minutes. Transformed cells were grown and selected on LB agar with 100 μg/mL ampicillin and 17 μg/mL chloramphenicol at 37° C. overnight. A single clone was used to inoculate 200 mL of LB medium with 100 μg/mL ampicillin and 17 μg/mL chloramphenicol and incubated at 37° C. on an orbital shaker at 180 rpm. Once in log growth, the culture was diluted 1:100 into 2 L of LB medium and grown until OD600 was about 0.3 after which the culture was incubated at 15° C. and 160 rpm. Once OD600 reached about 0.4, IPTG was added to a final concentration of 0.1 mM and the cells were grown overnight at 15° C. and 160 rpm. Cells were harvested by centrifugation at 8000 rpm, for 4 minutes at 4° C. and stored at −80° C. for purification.
Expressed full-length human His-tagged SMYD3 protein was purified from cell paste by Nickel affinity chromatography after equilibration of the resin with Buffer A (25 mM Tris, 200 mM NaCl, 5% glycerol, 5 mM β-mercaptoethanol, pH7.8). The column was washed with Buffer B (Buffer A plus 20 mM imidazole) and His-tagged SMYD3 was eluted with Buffer C (Buffer A plus 300 mM imidazole). The His tag, TEV and SUMO cleavage sites were removed generating native SMYD3 by addition of ULP1 protein at a ratio of 1:200 (ULP1:SMYD3). Imidazole was removed by dialysis overnight in Buffer A. The dialyzed solution was applied to a second Nickel column and the native SMYD3 protein was collected from the column flow-through. The flow-through was dialyzed in Buffer D (25 mM Tris, 5% glycerol, 5 mM β-mercaptoethanol, 50 mM NaCl, pH7.8) and ULP1 was removed using a Q sepharose fast flow column. SMYD3 was eluted in Buffer A and further purified using an S200 size-exclusion column equilibrated with Buffer A. SMYD3 was concentrated to 2 mg/mL with a final purity of 89%.
The assays were all performed in a buffer consisting of 25 mM Tris-Cl pH 8.0, 1 mM TCEP, 0.005% BSG, and 0.005% Tween 20, prepared on the day of use. Compounds in 100% DMSO (1 ul) were spotted into a 384-well white opaque OptiPlate using a Bravo automated liquid handling platform outfitted with a 384-channel head (Agilent Technologies). DMSO (1 ul) was added to Columns 11, 12, 23, 24, rows A-H for the maximum signal control and 1 ul of SAH, a known product and inhibitor of SMYD3, was added to columns 11, 12, 23, 24, rows I-P for the minimum signal control. A cocktail (40 ul) containing the SMYD3 enzyme was added by Multidrop Combi (Thermo-Fisher). […]
Regarding `CC1CC(NC(=O)c2cc(C3CC3)on2)CN1C1CC1` (stereo not drawn) [compound 22, 5-cyclopropyl-N-(1-cyclopropyl-5-methylpyrrolidin-3-yl)isoxazole-3-carboxamide], the half-maximal inhibitory concentration (IC50) was 47.1 µM. Regarding `CC1CN(C2CC2)CC1NC(=O)c1cc(C2CC2)on1` (stereo not drawn) [compound 23, 5-cyclopropyl-N-(1-cyclopropyl-4-methylpyrrolidin-3-yl)isoxazole-3-carboxamide], the half-maximal inhibitory concentration (IC50) is 48.5 µM. `NCCCS(=O)(=O)N1CC[C@H](NC(=O)c2cc(C3CC3)on2)C1` [compound 35, (S)-N-(1-((3-amino-propyl)sulfonyl)pyrrolidin-3-yl)-5-cyclopropyl-isoxazole-3-carboxamide]: the IC50 amounted to 4.43 µM. On to `C[C@@H]1C[C@H](NC(=O)c2cc(C3CC3)on2)C(=O)N1c1cnn(C)c1` (racemic) [compound 19, (±)-cis-5-cyclopropyl-N-(5-methyl-1-(1-methyl-1H-pyrazol-4-yl)-2-oxopyrrolidin-3-yl)isoxazole-3-carboxamide], for which the IC50 was over 200 µM. As for `O=C(NC1CCN(c2ccccc2)C1=O)c1cc(C2CC2)on1` (stereo not drawn) [compound 28, 5-cyclopropyl-N-(2-oxo-1-phenyl-pyrrolidin-3-yl)isoxazole-3-carboxamide], the 50% inhibitory concentration (IC50) came out at 94.2 µM. With `O=C(NC1CCN(C2CC2)C1c1ccc(F)c(F)c1)c1cc(C2CC2)on1` (stereo not drawn) [compound 8, 5-cyclopropyl-N-(1-cyclopropyl-2-(3,4-difluoro-phenyl)pyrrolidin-3-yl)isoxazole-3-carboxamide], the IC50 came to 12.4 µM.

Consider `CN1CCC(NC(=O)c2cc(C3CC3)on2)C1c1ccc(F)c(F)c1` (stereo not drawn) [compound 9, 5-cyclopropyl-N-(2-(3,4-difluorophenyl)-1-methylpyrrolidin-3-yl)isoxazole-3-carboxamide], for which the IC50 is 67.2 µM. In the case of `CN1CCC(NC(=O)c2cc(C3CC3)on2)C1c1ccccc1` (stereo not drawn) [compound 5, 5-cyclopropyl-N-(1-methyl-2-phenyl-pyrrolidin-3-yl)isoxazole-3-carboxamide], the IC50 worked out at 55.1 µM. In the case of `Cc1cc(N2CCC(NC(=O)c3cc(C4CC4)on3)C2=O)n(C)n1` (stereo not drawn) [compound 6, 5-cyclopropyl-N-(1-(1,3-dimethyl-1H-pyrazol-5-yl)-2-oxopyrrolidin-3-yl)isoxazole-3-carboxamide], the IC50 is over 200 µM.
